Key:
[1] = test system: Orobanche aegyptiaca seeds; experiment: Orobanche Germination Assay (biological activity after stress treatments); format: in vivo; details: with vs without HPC
Protocol: The implementation of the strigolactone analogs necessitates a degree of material stability, to ensure their activity on the plant under various growth conditions. Accordingly, the stability of the strigolactone analog GR24 was tested under different environmental conditions. GR24 in acetone stock solution of 5.6 mM was diluted in double distilled water (DDW) or HPC pre-made gel to a concentration of 0.56 μM in eppendorf tubes and was subjected to the following treatments:
GR24 solutions of 0.56 μM, diluted either in DDW or in HPC pre-made gel in eppendorf tubes were incubated in a dry block heater at temperatures of 4° C., 20° C., 40° C., 60° C. digitally set for periods of 3 h, 1 d, 2 d, 4 d, 5 d and 7 d under ambient light.
GR24 solutions of 0.56 μM, diluted either in DDW or in HPC pre-made gel, each in quartz tubes (15 replicates for each treatment) were exposed to UV radiation of λ=312 nm under UV lamp of 600 or 857 μE intensity for periods of 15 min, 30 min or 18 h.
Biological activity was determined by Orobanche Germination Assay: Approximately 30 to 50 seeds of Orobanche aegyptiaca were spread on a glass fiber filter paper disk (9-mm diameter) and put into sterile petri dishes (9-cm diameter) lined with Whatman filter paper wetted with 3 mL of demineralized water. Petri dishes were sealed with parafilm and incubated at 27° C. for preconditioning. After one week of preconditioning period, the glass fiber filter paper disks with Orobanche seeds were removed from the petri dish and dried for 20 min to remove surplus moisture. The disks were transferred to another petri dish within a filter paper ring (outer diameter of 9 cm; inner diameter of 8 cm) wetted with 0.9 mL of water, which maintained a moist environment during the germination bioassay. Forty microliters of the GR24 test solutions were added to the disks. Untreated GR24 at a 0.56 μM concentration was used as a positive control, water or HPC pre-made gel as negative controls. Germination percent was calculated using the counter cell analysis of the IMAGEJ (http://www.//rsbweb.nih.gov/ij/) software. Germinated seeds were distinguished from non-germinated seeds according to the seedling radicles, which are a few millimeters long and visible under a stereomicroscope (Leica MZFLIII, Leica Microsystems, GmbH).
For each of the GR24 treatments fifteen replicates with 30-40 seeds were tested per treatment with 40 μl of 0.56 μM GR24 test solutions pre-treated as described above. The experiment was repeated three times (n=450 seeds).
Next, GR24 was stabilized with Hydroxypropyl Cellulose (HPC), which is a […] medium. Granular HPC [Sigma-Aldrich Israel Ltd., CAS-No. 9004-64-2] […]

olive seedlings = experiment: Application via rigid tubes to olive seedlings under commercial nursery conditions; format: in vivo, Olea europaea L.; details: 50 μM with HPC+glycerin
Protocol: Experiments were performed in AGROGOLD nurseries under commercial nursery conditions, which include nethouse, 40% shed without temperature control. The tested formulations were applied in rigid tubes. […] The tube was sealed and fixed to the plant by cello tape. The tube was completely filled with ˜1 ml of the experimental formulation and then the top was covered with cotton (FIGS. 20A-20F). Each experiment included 10 olive plants for each treatment. The number of wake up buds was counted 75 days following application and the seedlings architecture, general growth and development were examined.
The bud growth effect of EGO10 (50 μM) or acetone control, each supplied together with HPC+glycerin on the stem of the olive cuttings was tested under the nursery conditions.

Almond = experiment: EGO10 granules and collar application to almond in commercial nursery; format: in vivo, Prunus dulcis
Protocol: Two replicates on experiments were performed in commercial nursery.

olive seedling = experiment: Application to olive seedling stem under greenhouse conditions (parafilm, flexible or rigid tubes); details: rigid tubes
Protocol: EGO10 either with PVAc, or HPC+glycerin were applied on olive seedling stem by the use of parafilm cover as the apparatus, under greenhouse conditions (FIG. 15). Greenhouse conditions include controlled room temperature of 25° C. In each experiment, 10 plants were used for each treatment. The substances were applied on the stem by a spatula and covered with parafilm.
In attempt to improve the performance of the apparatus, different substances and different cover were used. Four formulations were developed and tested. These formulations are based on polysaccharide-sorbent-humidifier substances while the main difference between them is the viscosity of the final product and the ability to retain and release of the active ingredient (EGO 10). […] The cover consisted of a flexible plastic tube that was cut (FIG. 16A), placed on the seedling stem (FIG. 16B) and wrapped with transparent plaster (FIG. 16C). The plastic tubes were filled with the experimental material (FIG. 16D). Moist cotton was placed on both sides of the tubes to minimize water evaporation (FIG. 16E and FIG. 16F). Bud outgrowth was measured for 30 days.
Rigid plastic tubes were tested in order to determine their efficiency as a delivery device for application of the hormone formulations to plants. At first, eppendorf tubes served as prototype. The tubes ware cut from top to bottom and placed on the stem of seedlings. Each tube was sealed with a small moist cotton at the bottom, filled with 1 ml of the examined material and finally covered with transparent plastic tape (FIGS. 17A-17E). The tubes were filled with (HPC+glycerin), or PVAc and EGO10 In each experiment, 10 plants were used for each treatment. Greenhouse conditions include controlled room temperature of 25° C.
EGO10 (10 μM) or acetone control together with HPC+glycerin or PVAc were applied on the stem of olive cuttings by the use of rigid plastic tubes as described in Example 10 above.
Bud outgrowth of olive cuttings was measured until day 30.

Hypericum plants = experiment: EGO10 collar and granules application to Hypericum plants; format: in vivo, Hypericum calycinum or Hypericum perforatum
Protocol: EGO10 (25 and 50 μM) with HPC+glycerin were applied in rigid tubes, as described above (Example 13) to Hypericum calycinum or Hypericum perforatum (Ivory Spices of Danziger, result of breeding for ornamental). Two replicates on experiments were done in the greenhouse. EGO10 was applied at the indicated concentrations as a collar. Also, EGO10 was applied in another, new way of application—as granules of slow release of 3×10^−8 M—that were applied in the soil, close to the root zone. […] An example to the results of the collar treatment is in FIG. 27.

## CC1=C[C@H](O/C=C2\Cc3c(n(C)c4ccccc34)C2=O)OC1=O [EGO10]
[1]; 60° C., 0 and 24 hours
  Orobanche germination % with HPC at 60° C.: increased biological activity
[1]; basic and acidic pH (pH 4, pH 7, pH 10)
  Orobanche germination % with HPC at different pH: increased biological activity
Olive seedlings
  application site (bark and vascular system) after removal of the apparatus: unharmed and functional
Olive seedlings; 75 days
  seedling outgrowth: not inhibited
Olive seedlings; rigid tubes, 75 days, vs acetone+HPC+glycerin
  number of wake up buds (bud outgrowth): inhibits bud outgrowth significantly
Olive seedlings; control seedlings bushy
  plant architecture: one or two leading branches
Almond; 3×10^−8 M as granules of controlled release
  number of axillary branches: marked and significant reduction in the number of axillary branches
Almond; both granules and collar
  number of axillary branches: reduced the inhibitory effect of the granules on side branches
Olive seedling; 10 μM with HPC+glycerin, greenhouse
  plant growth: without delaying plant growth
Olive seedling; 10 μM with HPC+glycerin, greenhouse, 30 days, not significantly different from control
  bud outgrowth: some inhibition of bud outgrowth
Olive seedling; 50 μM with HPC+glycerin
  growth of treated olive buds: grew properly
Olive seedling; 50 μM with HPC+glycerin, until day 30, vs acetone+HPC+glycerin
  bud outgrowth: significantly inhibits bud outgrowth
Hypericum plants; 50 μM as collar in Eppendorf tubes, not significantly different
  no. of axillary branches: marked reduction in the no. of axillary branches
Hypericum plants; granules of slow release of 3×10^−8 M in the soil
  no. of axillary branches: did not result with substantial changes in the no. of axillary branches
